Reference: patent US20120128807A1, “COMPOSITION FOR PREVENTING OR TREATING IRRITABLE BOWEL SYNDROME” (SK CHEMICALS CO., LTD., priority 2009, published 2012)

Experiments:
[1] = biological target: T1, neurokinin receptor (U-373MG glioma cell line) (Homo sapiens, UniProt P25103); assay: Neurokinin receptor inhibition: binding of fluorescent substance P to U-373MG cells; settings: 50 nM sample, 50nM SP
T1 construct: Cell line (U-373MG glioma cell line) over-expressing neurokinin receptor; host or cells: U-373MG glioma cell line
Experimental: Cell line (U-373MG glioma cell line) over-expressing neurokinin receptor was purchased from Korean Cell Line Bank. The cell line was incubated with 5% CO2 in a medium (90% of RPMI 1640, 10% of fetal bovine serum, 100 IU/ml of penicillin, 100 μg/ml of streptomycin, 2 mM of L-glutamine, and 1.0 mM of sodium pyruvate), and was sub-cultured every 6-8 days with 0.25% trypsin solution.
Cells were diluted to have various cell numbers, and were seeded onto a 24-well plate. After 48 hours, substance P (SP) connected with a probe was added in various concentrations. After some time for reaction, the concentration of fluorescence probe-containing SP (Oregon Green488 conjugate, Molecular Probes, Eugene, Oreg.) bound to the receptor was measured with a fluorophotometer according to the number of cells and the concentrations, through which the ideal condition was established [V J. Bennett et al., BMC Chem. Biol., 1:1, 2001]. Non-peptide antagonist, L-733060 (estimated affinity=0.8nM), which selectively binds to the receptor was used as a control [R. Bang et al., J. Pharmacol. Exp. Ther., 305, p 31-39, 2003].
50% Ethanol aqueous solution extract of Atractylodes japonica was solved in DMSO (the final concentration is within 0.1%) and diluted with distilled water. […] Then, cells were dissolved in 5% Triton X-100, and their fluorescence (Ex 485/Em 528) was measured with black, opaque 96-well plate. […]

[2] = biological target: neurokinin receptor (Homo sapiens, UniProt P25103); settings: non-peptide antagonist which selectively binds to the receptor; cited from earlier work
Chain of neurokinin receptor (P25103 whole entry): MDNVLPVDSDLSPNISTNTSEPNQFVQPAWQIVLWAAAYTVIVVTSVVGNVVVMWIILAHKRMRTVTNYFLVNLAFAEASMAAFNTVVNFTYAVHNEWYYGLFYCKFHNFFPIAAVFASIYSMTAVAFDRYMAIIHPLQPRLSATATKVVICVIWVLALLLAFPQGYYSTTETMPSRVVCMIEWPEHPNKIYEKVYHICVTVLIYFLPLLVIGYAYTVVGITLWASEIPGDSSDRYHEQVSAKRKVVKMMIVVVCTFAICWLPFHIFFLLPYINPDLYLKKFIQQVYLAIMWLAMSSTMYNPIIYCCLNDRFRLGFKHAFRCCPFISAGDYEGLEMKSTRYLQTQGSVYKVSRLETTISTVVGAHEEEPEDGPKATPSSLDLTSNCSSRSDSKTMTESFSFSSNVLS

T1 sequence (P25103 whole entry): as above

Relative Inhibitory Activity (%) [1]: 72 ± 8 %
SMILES: FC(F)(F)c1cc(CO[C@H]2CCCN[C@H]2c2ccccc2)cc(C(F)(F)F)c1 [Extract L-733060, L-733060]
estimated affinity [2]: 0.8 nM
